Data set [1] deals with PBMCs. Put plainly: Cell mitosis assay in PBMCs. It is filed as cell-based. Conditions: Homo sapiens, PBMC, 5 μg/mL. The procedure, abridged:
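Human PBMCs from healthy donors, density-gradient isolated, stimulated with 2% PHA 48 h, then exposed 20 h to test compounds; demecolcine 0.1 μg/mL added 2 h before harvest. Fixed/permeabilised cells stained for phospho-histone H3 and propidium iodide; mitotic lymphocytes counted by flow cytometry.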

Data set [2] concerns d-U937 cells. Put plainly: LPS-induced TNFα/IL-8 release in d-U937 cells. The data set is classed as cell-based. Conditions: Homo sapiens, dU937, assay (aa). Here is the method: U937 cells, a human monocytic cell line, are differentiated to macrophage-type cells by incubation with phorbol myristate acetate (PMA; 100 ng/mL) for 48 to 72 hr. Cells are pre-incubated with final concentrations of test compound for 2 hr and are then stimulated with 0.1 μg/mL of LPS (from E. Coli: 0111:B4, Sigma) for 4 hr. The supernatant is collected for determination of TNFα and IL-8 concentrations by sandwich ELISA (Duo-set, R&D systems). […] The relative 50% effective concentration (REC50) is determined from the resultant concentration-response curve. The inhibition of IL-8 production is calculated at each concentration of test compound by comparison with vehicle control.

Data set [3] deals with PBMCs. Put plainly: LPS-induced TNFα/IL-8 release in PBMC cells. It is filed as cell-based. The following applies: Homo sapiens, assay (b), read-out: IC50 Values for Inhibition of Cytokine Release PBMCs IL-8. The procedure, abridged:
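Healthy-donor PBMCs isolated by density gradient were pretreated with compound for 2 h, then stimulated with 1 ng/mL LPS (E. coli 0111:B4) for 24 h at 37° C., 5% CO2. IL-8 and TNFα in supernatants measured by sandwich ELISA.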

Data set [4] relates to HT29 cells. Put plainly: IL-1β-induced IL-8 release in HT29 cells. Conditions: Homo sapiens, HT-29, assay (d), read-out: IC50 Values for Inhibition of Cytokine Release HT29 cells IL-8. The data set is classed as cell-based. How it is done: HT29 cells, a human colon adenocarcinoma cell line, are plated in a 96 well plate (24 hr) and pre-treated with compounds at the desired concentration for 2 hours before addition of 5 ng/mL of IL-1β (Abcam) for 24 hours. Supernatants are harvested for IL-8 quantification by Sandwich ELISA (Duo-set, R&D System). The IC50 is determined from the dose response curve.

Data set [5] has as its system PBMCs. Put plainly: IL-2 and IFN gamma release in CD3/CD28 stimulated PBMC cells. It is filed as cell-based. The following applies: Homo sapiens, assay (c). The procedure, abridged:
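Healthy-donor PBMCs, density-gradient isolated, stimulated on plates pre-coated with anti-CD3 (0.3 μg/mL) and anti-CD28 (3 μg/mL) antibodies, with compound, for 3 days under standard culture conditions. IC50 derived from the dose-response curve.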

Data set [6] relates to BDF1 mice. Put plainly: TNBS-induced colitis in mice. It is filed as in vivo. Conditions: conducted over 2 days; vehicle corn oil/transcutol/maisine/cremophor ELP. How it is done: Non-fasted, 10-12 week old, male BDF1 mice are dosed by oral gavage twice daily with either vehicle (5 mL/kg), reference item (Budesonide 2.5 mg/kg) or test compound (1 or 5 mg/kg) one day before (Day −1) stimulation of the inflammatory response by treatment with 2,4,6-trinitrobenzenesulphonic acid (TNBS) (15 mg/mL in 50% ethanol/50% saline). On Day 0 of the study TNBS (200 μL) is administered intra-colonically via a plastic catheter with BID dosing of the vehicle, reference or test compound continuing for 2 or 4 days. During the study, animals are weighed every day and stool observations are made and recorded as a score, based on stool consistency. At the time of sacrifice on Day 2 (or Day 4), the large intestine is removed and the length and weight recorded. Sections of the colon are taken for histopathology scoring to determine disease severity.

Data set [7] can be described thus: Hydrolytic stability study (DMSO/water 3:1, 60° C.). The data set is classed as physicochemical. Here is the method:
Chemical stability of compounds of the invention was assessed in a mixture of DMSO and water (3:1) at a test compound concentration of 1 mg/mL
Agilent, Waters X-Select C18, 2.5 μm, 4.6×30 mm column, 4 min method, 5-95%
MeCN/water (0.1% formic acid).
Column Oven Temperature 40° C.
Sample Preparation • A 1.0 mg sample of test compound was dissolved in 750 μL of DMSO. Water (250 μL) was added slowly, ensuring no precipitation occurred.
Recording Stability • A 50 μL aliquot of the test solution was removed and analysed in duplicate by 5 μL HPLC injections. The peak area for the test compound was recorded following manual integration of the corresponding UV trace. • The test solution was heated to 60° C., with stirring, and 50 μL aliquots removed for HPLC analysis at 5 and 24 h timepoints.

The mark [8] stands for this setting: method: relative to 10 μg/mL BIRB796 (REC50), read-out: IC50 Values for Inhibition of Cytokine Release dU937 cells TNFα.
Setting [9] is: read-out: IC50 Values for Inhibition of Cytokine Release dU937 cells IL-8.
Where [10] appears, read: read-out: IC50 Values for Inhibition of Cytokine Release PBMCs IFNγ.
The mark [11] stands for this setting: read-out: IC50 Values for Inhibition of Cytokine Release PBMCs IL-2.

Like-named read-outs stand apart in the source and are kept apart here.

In data set [1], `COc1cc(Nc2nccc(Oc3ccc(NC(=O)Nc4cc(C(C)(C)C)cc(NS(C)(=O)=O)c4OC)c4ccccc34)n2)cc(S(=O)(=O)C2CC2)c1` [Example 5, N-(5-(tert-Butyl)-3-(3-(4-((2-((3-(cyclopropylsulfonyl)-5-methoxyphenyl)amino)pyrimidin-4-yl)oxy)naphthalen-1-yl)ureido)-2-methoxyphenyl)methanesulfonamide] came in with an inhibition at 5 µg/mL of 44.9%. The 50% inhibitory concentration (IC50) in data set [2] (setting [8]) was 0.5 nM; in data set [2] (setting [9]) it was 1.4 nM; in data set [3], 2.4 nM; in data set [4], 6.8 nM; in data set [5] (setting [10]), 10.3 nM; in data set [5] (setting [11]) it was 151 nM.
Consider `COCCOCCOCCOc1cc(Nc2nccc(Oc3ccc(NC(=O)Nc4cc(C(C)(C)C)cc(NS(C)(=O)=O)c4OC)c(Cl)c3Cl)n2)cc(OC)c1` [Example 10, N-(5-(tert-Butyl)-3-(3-(2,3-dichloro-4-((2-((3-methoxy-5-(2-(2-(2-methoxyethoxy)ethoxy)-ethoxy)phenyl)amino)pyrimidin-4-yl)oxy)phenyl)ureido)-2-methoxyphenyl)-methanesulfonamide], for which, in data set [1], the inhibition at 5 µg/mL was 70.2%. Moreover, the IC50 was 0.3 nM in data set [2] (setting [8]); 0.8 nM in data set [2] (setting [9]); 2.3 nM in data set [3]; 4.6 nM in data set [4]; 4.4 nM in data set [5] (setting [10]); 9 nM in data set [5] (setting [11]).
The molecule `COCCOCCOCCOc1cc(Nc2cc(Oc3ccc(NC(=O)Nc4cc(C(C)(C)C)cc(NS(C)(=O)=O)c4OC)c4ccccc34)ccn2)cc(OC)c1` [Example 11, N-(5-(tert-Butyl)-2-methoxy-3-(3-(4-((2-((3-methoxy-5-(2-(2-(2-methoxyethoxy)ethoxy)-ethoxy)phenyl)amino)pyridin-4-yl)oxy)naphthalen-1-yl)ureido)phenyl)-methanesulfonamide] registered an inhibition at 5 µg/mL in data set [1] of 33.5%. The IC50 in data set [2] (setting [8]) was found to be 1.2 nM; in data set [2] (setting [9]) it was 1.4 nM; in data set [3], 2.6 nM; in data set [4] it was 9.3 nM; in data set [5] (setting [10]), 17.7 nM; in data set [5] (setting [11]), 73.6 nM.
On to `COCCOCCOCCOCCOCCOCCOCCOc1cc(Nc2nccc(Oc3ccc(NC(=O)Nc4cc(C(C)(C)C)cc(NS(C)(=O)=O)c4OC)c4ccccc34)n2)cc(OC)c1` [Example 14, N-(3-(3-(4-((2-((3-(2,5,8,11,14,17,20-Heptaoxadocosan-22-yloxy)-5-methoxyphenyl)amino)-pyrimidin-4-yl)oxy)naphthalen-1-yl)ureido)-5-(tert-butyl)-2-methoxyphenyl)-methanesulfonamide], for which the inhibition at 5 µg/mL in data set [1] was 49.8%. Moreover, the IC50 in data set [2] (setting [8]) stood at 0.5 nM; in data set [2] (setting [9]) it was 0.6 nM; in data set [3] it was 1.7 nM; in data set [4], 3 nM; in data set [5] (setting [10]), 19.7 nM; in data set [5] (setting [11]), 182 nM.
In turn, `COCCOCCOCCOc1cc(Nc2nccc(Oc3ccc(NC(=O)Nc4cc(C(C)(C)C)cc(NS(C)(=O)=O)c4OC)c4ccccc34)n2)cc(OC(F)F)c1` [Example 17, N-(5-(tert-Butyl)-3-(3-(4-((2-((3-(difluoromethoxy)-5-(2-(2-(2-methoxyethoxy)ethoxy)-ethoxy)phenyl)amino)pyrimidin-4-yl)oxy)naphthalen-1-yl)ureido)-2-methoxyphenyl)-methanesulfonamide] showed an inhibition at 5 µg/mL in data set [1] of 37%. Further, the half-maximal inhibitory concentration (IC50) was 1.4 nM in data set [2] (setting [9]); 1.8 nM in data set [3]; 5.1 nM in data set [4]; 8.2 nM in data set [5] (setting [10]); 65.6 nM in data set [5] (setting [11]).
For `COCCOCCOCCOc1cc(Nc2cc(Oc3ccc(NC(=O)Nc4cc(C(C)(C)C)cc(C(N)=O)c4OC)c4ccccc34)ccn2)cc(OC)c1` [Example 34, 5-(tert-Butyl)-2-methoxy-3-(3-(4-((2-((3-methoxy-5-(2-(2-(2-methoxyethoxy)ethoxy)ethoxy)phenyl)amino)pyridin-4-yl)oxy)naphthalen-1-yl)ureido)benzamide], the inhibition at 5 µg/mL in data set [1] is 40.4%. In addition, the IC50 in data set [3] worked out at 3 nM; in data set [4] it was 2.1 nM; in data set [5] (setting [10]) it was 7.6 nM; in data set [5] (setting [11]), 62.5 nM. In data set [6], the “activity in TNBS-induced colitis (histopathology analysis)” value is on record as “displayed substantial activity”.
Molecule `COc1cc(Nc2cc(Oc3ccc(NC(=O)Nc4cc(C(C)(C)C)cc(NS(C)(=O)=O)c4OC)c4ccccc34)ccn2)cc(C(=O)NCCN2CCN(C)CC2)c1` [Example 79, 3-((4-((4-(3-(5-(tert-Butyl)-2-methoxy-3-(methylsulfonamido)phenyl)ureido)naphthalen-1-yl)oxy)pyridin-2-yl)amino)-5-methoxy-N-(2-(4-methylpiperazin-1-yl)ethyl)benzamide] yielded an inhibition at 5 µg/mL in data set [1] of 54.4%. The IC50 in data set [3] was 3.4 nM; in data set [4], 13.1 nM; in data set [5] (setting [10]) it was 5.9 nM; in data set [5] (setting [11]), 284 nM. For the same molecule, the “activity in TNBS-induced colitis (histopathology analysis)” value in data set [6] is “displayed substantial activity”.
In the case of `C#Cc1cc(Nc2nccc(Oc3ccc(NC(=O)Nc4cc(C(C)C)nn4-c4ccc(C)cc4)c4ccccc34)n2)cc(C(=O)NCCN2CCOCC2)c1` [Reference Compound B, 3-ethynyl-5-((4-((4-(3-(3-isopropyl-1-(p-tolyl)-1H-pyrazol-5-yl)ureido)naphthalen-1-yl)oxy)pyrimidin-2-yl)amino)-N-(2-morpholinoethyl)benzamide, reference compound], the “decomposition in hydrolytic stability study” value in data set [7] (1 mg/mL in DMSO:water (3:1), 60° C., 5 and 24 h) was “underwent substantial decomposition”. Besides, the “% Parent Remaining” value came out at 100% in data set [7] (DMSO/water 3:1, 0 min); 82% in data set [7] (DMSO/water 3:1, 60° C., 300 min); 36% in data set [7] (DMSO/water 3:1, 60° C., 1440 min).

(Values after patent publication US10435361B2, “Kinase inhibitors” (Topivert Pharma Limited, priority 2013, dated 2019).)
